Data reported in patent US6794365B2, “Malonic acid derivatives, processes for their preparation their use and pharmaceutical compositions containing them” (Aventis Pharma Deutschland GmbH, priority 2000, dated 2004).
Counter-ions that a name gives are not always drawn.

Target: factor Xa (Homo sapiens, UniProt P00742)
Assay: In vitro Factor Xa assay (Test 1a), chromogenic substrate S-2765
Format: biochemical
Parameters: purchased Enzyme Research Laboratories, Inc; South Bend, Ind
Conditions: Factor Xa inhibitory activity; Ki from IC50 corrected for substrate competition; 25° C., pH 7.8; read-out: Ki (FXa)
Method: Purified enzymes are used in chromogenic assays. To determine the inhibition constant, the IC50 value is corrected for competition with substrate using the formula: […] where Km is the Michaelis-Menten-constant (Y.-C. Chen and W. H. Prusoff, Biochem. Pharmacol. 22: […] (1973), which is incorporated herein by reference). TBS-PEG buffer (50 mM Tris-Cl, pH 7.8, 200 mM NaCl, 0.05% (w/v) PEG-8000, 0.02% (w/v) NaN3) is used for this assay. The IC50 is determined by combining in appropriate wells of a Costar half-area microtiter plate 25 μl human factor Xa (Enzyme Research Laboratories, Inc.; South Bend, Ind.) in TBS-PEG; 40 μl 10% (v/v) DMSO in TBS-PEG (uninhibited control) or various concentrations of the compound to be tested diluted in 10% (v/v) DMSO in TBS-PEG; and substrate S-2765 (N-benzyloxycarbonyl-[…]-nitroanilide; Kabi Pharmacia, Inc.; Franklin Ohio) in TBS-PEG. […] The initial velocity of chromogenic substrate hydrolysis is measured by the change in absorbance at 405 nm using a Bio-tek Instruments kinetic plate reader ([…] 25° C. during the linear portion of the time course (usually 1.5 min after addition of substrate).

factor Xa, sequence (P00742 235-488 limits assumed): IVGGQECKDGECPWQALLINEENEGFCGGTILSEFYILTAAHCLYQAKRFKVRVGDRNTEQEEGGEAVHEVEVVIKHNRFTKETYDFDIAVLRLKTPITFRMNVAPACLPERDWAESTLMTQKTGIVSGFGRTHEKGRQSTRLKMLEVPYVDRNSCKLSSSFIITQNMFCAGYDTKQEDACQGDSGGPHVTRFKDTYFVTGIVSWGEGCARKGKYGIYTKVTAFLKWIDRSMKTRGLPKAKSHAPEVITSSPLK
factor Xa, sequence (P00742 41-179 partner limits assumed): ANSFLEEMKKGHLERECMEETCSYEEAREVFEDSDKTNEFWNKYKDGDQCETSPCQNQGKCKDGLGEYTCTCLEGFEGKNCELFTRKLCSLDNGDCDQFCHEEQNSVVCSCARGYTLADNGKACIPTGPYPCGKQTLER

SMILES | Ki
CN(C)C(=O)C(Cc1ccc(C(=N)NO)cc1)C(=O)N[C@H](C(=O)N[C@@H](CCCNC(=N)N)C(N)=O)C1CCCCC1 (single isomer, unassigned; less polar) [Example 3] | 156 nM
C=CCOC(=O)[C@H](CCCNC(=N)N)NC(=O)[C@@H](NC(=O)C(Cc1ccc(C(=N)N)cc1)C(=O)N(C)Cc1ccccc1)C1CCCCC1 (single isomer, unassigned; less polar) [Example 6] | 1 nM
CC(C)C[C@H](NC(=O)[C@H](CCCNC(=N)N)NC(=O)[C@@H](NC(=O)C(Cc1ccc(N)cc1)C(=O)N(C(C)C)C(C)C)C1CCCCC1)C(=O)N1CCC[C@H]1C(N)=O (single isomer, unassigned; less polar) [Example 97] | 40 nM
CCOC(=O)[C@H](CCCNC(=N)N)NC(=O)[C@@H](NC(=O)C(Cc1ccc(C(=N)N)cc1)C(=O)NCc1ccccc1)C1CCCCC1 (single isomer, unassigned; less polar) [Example 136] | 10 nM
N=C(N)NCCC[C@H](NC(=O)[C@@H](NC(=O)C(Cc1ccc(C(=N)N)cc1)C(=O)NCc1ccccc1)C1CCCCC1)C(N)=O (single isomer, unassigned; more polar) [Example 8] | 35.1 nM
CC(C)C[C@H](NC(=O)[C@H](Cc1ccc[n+](C)c1)NC(=O)[C@@H](NC(=O)C(Cc1ccc(C(=N)N)cc1)C(=O)N(C(C)C)C(C)C)C1CCCCC1)C(=O)N1CCC[C@H]1C(N)=O (single isomer, unassigned; more polar) [Example 94] | 1700 nM
CN(C)C(=O)C(Cc1ccc(C(=N)N)cc1)C(=O)N[C@H](C(=O)N(CC(N)=O)Cc1ccncc1)C1CCCCC1 (single isomer, unassigned; more polar) [Example 104] | 6500 nM
N=C(N)NCCC[C@H](NC(=O)[C@@H](NC(=O)C(Cc1ccc(C(=N)NO)cc1)C(=O)NCc1ccccc1)C1CCCCC1)C(N)=O (single isomer, unassigned; more polar) [Example 129] | 360 nM
CN(C)C(=O)C(Cc1ccc(C(=N)N)cc1)C(=O)N1Cc2ccccc2C[C@H]1C(=O)N[C@@H](CCCNC(=N)N)C(N)=O (stereo partly drawn) [Example 10, 2-[3-(4-Carbamimidoyl-phenyl)-2-dimethylcarbamoyl-propionyl]-1,2,3,4-tetrahydro-isoquinoline-3-(S)-carboxylic acid (1-(S)-carbamoyl-4-guanidino-butyl)-amide trifluoroacetic acid salt] | 604 nM
N=C(N)NCCC[C@H](NC(=O)[C@@H](NC(=O)C(Cc1ccc(C(=N)NO)cc1)C(=O)NCc1ccccc1)C1CCCCC1)C(N)=O (stereo partly drawn) [Example 14, N-Benzyl-N′-[(S)-(1-(S)-carbamoyl-4-guanidino-butylcarbamoyl)-cyclohexyl-methyl]-2-[4-(N-hydroxycarbamimidoyl)-benzyl]-malonamide trifluoroacetic acid salt] | 21.8 nM
C=CCNC(=O)C(Cc1ccc(C(=N)N)cc1)C(=O)N[C@@H](Cc1ccc(N)cc1)C(=O)N[C@@H](CCCNC(=N)N)C(N)=O (stereo partly drawn) [Example 17, N-Allyl-N′-[2-(4-amino-phenyl)-1-(S)-(1-(S)-carbamoyl-4-guanidino-butylcarbamoyl)-ethyl]-2-(4-carbamimidoyl-benzyl)-malonamide trifluoroacetic acid salt] | 2290 nM
CCC(C)[C@@H](C(=O)N[C@@H](CCCNC(=N)N)C(N)=O)N(C)C(=O)C(Cc1ccc(C(=N)N)cc1)C(=O)Nc1ccccc1 (stereo partly drawn) [Example 21, 2-(4-Carbamimidoyl-benzyl)-N-[1-(S)-(1-(S)-carbamoyl-4-guanidino-butylcarbamoyl)-2-methyl-butyl]-N-methyl-N′-phenyl-malonamide trifluoroacetic acid salt] | 8370 nM
CCCC[C@H](NC(=O)C(Cc1ccc(C(=N)N)cc1)C(=O)NC)C(=O)N[C@@H](CCCNC(=N)N)C(N)=O (stereo partly drawn) [Example 28, 2-(4-Carbamimidoyl-benzyl)-N-[1-(S)-(1-(S)-carbamoyl-4-guanidino-butylcarbamoyl)-pentyl]-N′-methyl-malonamide trifluoroacetic acid salt] | 47 nM
CCCC[C@H](NC(=O)C(Cc1ccc(C(=N)N)cc1)C(=O)Nc1ccccc1)C(=O)N[C@@H](CCCNC(=N)N)C(N)=O (stereo partly drawn) [Example 30, 2-(4-Carbamimidoyl-benzyl)-N-[1-(S)-(1-(S)-carbamoyl-4-guanidino-butylcarbamoyl)-pentyl]-N′-phenyl-malonamide trifluoroactic acid salt] | 153 nM
N=C(N)NCCC[C@H](NC(=O)[C@H](Cc1ccc2ccccc2c1)NC(=O)C(Cc1ccc(C(=N)N)cc1)C(=O)Nc1ccccc1)C(N)=O (stereo partly drawn) [Example 38, 2-(4-Carbamimidoyl-benzyl)-N-[1-(S)-(1-(S)-carbamoyl-4-guanidino-butylcarbamoyl)-2-naphthalen-2-yl-ethyl]-N′-phenyl-malonamide trifluoroacetic acid] | 1100 nM
CN(C)C(=O)C(Cc1ccc(C(=N)N)cc1)C(=O)N[C@@H](CCc1ccccc1)C(=O)N[C@@H](CCCNC(=N)N)C(N)=O (stereo partly drawn) [Example 40, 2-(4-Carbamimidoyl-benzyl)-N-[1-(S)-(1-(S)-carbamoyl-4-guanidino-butylcarbamoyl)-3-phenyl-propyl]-N′,N′-dimethyl-malonamide trifluoroacetic acid salt] | 10.7 nM
C=CCNC(=O)C(Cc1ccc(C(=N)N)cc1)C(=O)N[C@@H](CCCN)C(=O)N[C@@H](CCCNC(=N)N)C(N)=O (stereo partly drawn) [Example 45, N-Allyl-N′-[4-amino-1-(S)-(1-(S)-carbamoyl-4-guanidino-butylcarbamoyl)-butyl]-2-(4-carbamimidoyl-benzyl)-malonamide trifluoroacetic acid salt] | 26500 nM
N=C(N)NCCC[C@H](NC(=O)[C@H](CO)NC(=O)C(Cc1ccc(C(=N)N)cc1)C(=O)Nc1ccccc1)C(N)=O (stereo partly drawn) [Example 54, 2-(4-Carbamimidoyl-benzyl)-N-[1-(S)-(1-(S)-carbamoyl-4-guanidino-butylcarbamoyl)-2-hydroxy-ethyl]-N′-phenyl-malonamide trifluoroacetic acid salt] | 3010 nM
CN(C)C(=O)C(Cc1ccc(C(=N)N)cc1)C(=O)N[C@H](C(=O)N[C@@H](CCCNC(=N)N)C(N)=O)c1ccccc1 (stereo partly drawn) [Example 56, 2-(4-Carbamimidoyl-benzyl)-N-[(S)-(1-(S)-carbamoyl-4-guanidino-butylcarbamoyl)-phenyl-methyl]-N′,N′-dimethyl-malonamide trifluoroacetic acid salt] | 2.1 nM
N=C(N)NCCC[C@H](NC(=O)[C@@H](NC(=O)C(Cc1ccc(C(=N)N)cc1)C(=O)Nc1ccccc1)c1ccccc1)C(N)=O (stereo partly drawn) [Example 58, 2-(4-Carbamimidoyl-benzyl)-N-[(S)-(1-(S)-carbamoyl-4-guanidino-butylcarbamoyl)-phenyl-methyl]-N′-phenyl-malonamide trifluoroacetic acid salt] | 57.5 nM
C=CCNC(=O)C(Cc1ccc(C(=N)N)cc1)C(=O)N[C@@H](COCc1ccccc1)C(=O)N[C@@H](CCCNC(=N)N)C(N)=O (stereo partly drawn) [Example 61, N-Allyl-N′-[2-benzyloxy-1-(S)-(1-(S)-carbamoyl-4-guanidino-butylcarbamoyl)-ethyl]-2-(4-carbamimidoyl-benzyl)-malonamide trifluoroacetic acid salt] | 957 nM
CN(C)C(=O)C(Cc1ccc(C(=N)N)cc1)C(=O)N[C@@H](CCC(=O)O)C(=O)N[C@@H](CCCNC(=N)N)C(=O)N[C@@H](CC1CCCCC1)C(N)=O (stereo partly drawn) [Example 69, 4-(S)-[3-(4-Carbamimidoyl-phenyl)-2-dimethylcarbamoyl-propionylamino]-4-[1-(S)-(1-(S)-carbamoyl-2-cyclohexyl-ethylcarbamoyl)-4-guanidino-butylcarbamoyl]-butyric acid trifluoroacetic acid salt] | 285 nM
CCCC[C@@H](NC(=O)C(Cc1ccc(C(=N)N)cc1)C(=O)N(C)C)C(=O)N[C@@H](CCCNC(=N)N)C(=O)O (stereo partly drawn) [Example 72, 2-(S)-{2-(R)-[3-(4-Carbamimidoyl-phenyl)-2-dimethylcarbamoyl-propionylamino]-hexanoylamino}-5-guanidino-pentanoic acid trifluoroacetic acid salt] | 4300 nM
N=C(N)NCCC[C@H](NC(=O)[C@@H](NC(=O)C(Cc1ccc(C(=N)N)cc1)C(=O)NCc1ccccc1)C1CCCCC1)C(=O)O (stereo partly drawn) [Example 82, 2-(S)-{2-(S)-[2-Benzylcarbamoyl-3-(4-carbamimidoyl-phenyl)-propionylamino]-2-cyclohexyl-acetylamino}-5-guanidino-pentanoic acid trifluoroacetic acid salt] | 39.3 nM
C=CCNC(=O)C(Cc1ccc(C(=N)N)cc1)C(=O)N[C@@H](CCC(=O)O)C(=O)N[C@@H](CCCNC(=N)N)C(=O)N[C@@H](CC1CCCCC1)C(N)=O (stereo partly drawn) [Example 89, 4-(S)-[2-Allylcarbamoyl-3-(4-carbamimidoyl-phenyl)-propionylamino]-4-[1-(S)-(1-(S)-carbamoyl-2-cyclohexyl-ethylcarbamoyl)-4-guanidino-butylcarbamoyl]-butyric acid trifluoroacetic acid salt] | 6480 nM
